According to ChEMBL document CHEMBL3039007, “Structure-based identification of OATP1B1/3 inhibitors” (Mol Pharmacol, 2013):

How the values were obtained:
[1] = target: T1, Solute carrier organic anion transporter family member 1B1 (Homo sapiens, UniProt Q9Y6L6); settings: chinese hamster, cho, 10 µM
T1 sequence (Q9Y6L6 whole entry): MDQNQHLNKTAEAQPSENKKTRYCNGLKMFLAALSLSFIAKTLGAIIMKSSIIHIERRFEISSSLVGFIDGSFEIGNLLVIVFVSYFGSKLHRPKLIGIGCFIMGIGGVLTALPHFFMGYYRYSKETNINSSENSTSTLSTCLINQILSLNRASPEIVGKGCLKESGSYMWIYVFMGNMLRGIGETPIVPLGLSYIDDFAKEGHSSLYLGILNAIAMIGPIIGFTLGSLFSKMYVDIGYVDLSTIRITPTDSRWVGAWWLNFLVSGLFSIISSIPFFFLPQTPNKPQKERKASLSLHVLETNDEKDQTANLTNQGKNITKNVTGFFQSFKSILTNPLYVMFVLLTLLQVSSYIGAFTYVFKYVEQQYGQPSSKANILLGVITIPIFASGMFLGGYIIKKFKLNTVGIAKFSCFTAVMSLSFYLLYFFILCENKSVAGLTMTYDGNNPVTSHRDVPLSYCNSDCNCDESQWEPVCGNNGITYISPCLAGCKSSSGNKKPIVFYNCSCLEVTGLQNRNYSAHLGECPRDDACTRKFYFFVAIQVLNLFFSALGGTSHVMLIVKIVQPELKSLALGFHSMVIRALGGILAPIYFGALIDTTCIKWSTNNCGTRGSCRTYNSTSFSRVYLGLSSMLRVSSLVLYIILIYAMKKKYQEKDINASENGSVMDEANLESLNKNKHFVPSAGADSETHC

[2] = target: T2, Solute carrier organic anion transporter family member 1B3 (Homo sapiens, UniProt Q9NPD5); settings: chinese hamster, cho, 10 µM
T2 sequence (Q9NPD5 whole entry): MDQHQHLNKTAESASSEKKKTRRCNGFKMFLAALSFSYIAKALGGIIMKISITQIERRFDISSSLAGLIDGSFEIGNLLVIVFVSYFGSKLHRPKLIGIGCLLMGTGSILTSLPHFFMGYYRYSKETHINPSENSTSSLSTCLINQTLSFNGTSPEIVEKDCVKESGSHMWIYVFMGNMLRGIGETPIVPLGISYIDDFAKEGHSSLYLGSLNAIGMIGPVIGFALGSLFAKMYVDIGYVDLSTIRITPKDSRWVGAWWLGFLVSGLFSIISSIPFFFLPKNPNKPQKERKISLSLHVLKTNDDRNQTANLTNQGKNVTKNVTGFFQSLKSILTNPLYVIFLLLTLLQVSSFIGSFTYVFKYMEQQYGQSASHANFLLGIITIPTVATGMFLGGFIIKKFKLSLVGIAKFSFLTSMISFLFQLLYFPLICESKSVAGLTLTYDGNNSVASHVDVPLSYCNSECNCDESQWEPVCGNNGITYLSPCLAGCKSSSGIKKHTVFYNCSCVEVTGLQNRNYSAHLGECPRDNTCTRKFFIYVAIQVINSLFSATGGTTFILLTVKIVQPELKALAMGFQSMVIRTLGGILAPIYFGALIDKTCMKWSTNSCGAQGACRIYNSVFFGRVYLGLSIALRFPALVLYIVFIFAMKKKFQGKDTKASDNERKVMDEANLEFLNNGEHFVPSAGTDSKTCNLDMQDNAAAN

| Structure (SMILES) | residual activity [1] | residual activity [2] |
| --- | --- | --- |
| NC(=O)c1cccc(N)c1 [3-AMINOBENZAMIDE] | 106.1% | 110.7% |
| CC(=O)O[C@H]1C[C@@H](O)C(C)(C)[C@@H]2C[C@@H](OC(C)=O)[C@]3(C)[C@H](CC[C@@]4(C)[C@@H](c5ccoc5)OC(=O)[C@H]5O[C@@]534)[C@@]12C [3-DEACETYLKHIVORIN] | 94.07% | 88.69% |
| COC(=O)C[C@H]1C(C)(C)[C@@H](O)[C@@H]2CC3=C4C=C(OC)O[C@@H](c5ccoc5)[C@]4(C)CCC3[C@@]1(C)C2=O (stereo partly drawn) [3-DEOXO-3beta-HYDROXYMEXICANOLIDE 16-ENOL ETHER] | 27.18% | 106.5% |
| C=C1[C@H]2CC[C@@]3(C)[C@H](c4ccoc4)OC(=O)C[C@]13O[C@H]1C[C@H](O)C(C)(C)[C@H](CC(=O)OC)[C@]12C [3-DEOXY-3beta-HYDROXYANGOLENSIC ACID METHYL ESTER] | 50.95% | 59.13% |
| COc1ccc2c(c1)OC[C@@H](Cc1ccc(OC)c(OC)c1)[C@@H]2O [3-DESHYDROXYSAPPANOL TRIMETHYL ETHER] | 100.6% | 104.1% |
| COc1ccc(-c2oc3ccccc3c(=O)c2O)cc1OC [3-HYDROXY-3',4'-DIMETHOXYFLAVONE] | 119.6% | 106.3% |
| O=c1oc2ccccc2cc1O [3-HYDROXYCOUMARIN] | 126.8% | 116.7% |
| COc1cccc(O)c1O [3-METHOXYCATECHOL] | 98.75% | 107.5% |
| Cc1ccc2cc3c(ccc4ccccc43)c3c2c1CC3 [3-METHYLCHOLANTHRENE] | 86.73% | 78.58% |
| Cc1cc(O)c(C)c(O)c1C(=O)O [3-METHYLORSELLINIC ACID] | 116.2% | 114.8% |
| Cn1c(=O)[nH]c(=O)c2[nH]cnc21 [3-METHYLXANTHINE] | 101.5% | 95.53% |
| CC1(C)CC23C(=O)CCC(O)C2(C)CCC13 (configuration not stated) [3-NOR-3-OXOPANASINSAN-6-OL] | 100.8% | 112.2% |
| C[C@@H]1CC[C@@]23CCC4(C)[C@@](C=CC5[C@@]6(C)CCC(=O)C(C)(C)C6CC[C@]54C)(OC2=O)C3[C@H]1C (some centres not stated) [3-OXOURSAN (28-13)OLIDE] | 105.6% | 96.4% |
| CC1/C(=N/O)C[C@@H]2C[C@H]1C2(C)C (some centres not stated) [3-PINANONE OXIME] | 95.73% | 123% |
| CC(=O)c1ccc(O)c(CC=C(C)C)c1 [3-PRENYL-4-HYDROXYACETOPHENONE] | 93.69% | 99.32% |
| C[C@]12CC[C@@H](O)C[C@H]1CCc1ccccc12 [3alpha-HYDROXY-4,4-BISNOR-8,11,13-PODOCARPATRIENE] | 77.88% | 100.9% |
| CC(=O)O[C@H]1CC[C@]2(C)C(C[C@H](OC(C)=O)[C@]3(C)C4=CC(=O)OC(c5ccoc5)[C@@]4(C)CCC23)C1(C)C (stereo partly drawn) [3beta,7beta-DIACETOXYDEOXODEACETOXYDEOXYDIHYDROGEDUNIN] | 51.92% | 67.84% |
| CC(=O)O[C@H]1CC[C@]2(C)C3=CC(=O)[C@@]4(C)C(C[C@@H]5OC6(OCC(C)CC6Br)[C@@H](C)[C@@H]54)C3CC[C@H]2C1 (stereo partly drawn) [3beta-ACETOXY-23-BROMO-ISOALLOSPIROST-9 (11)-ENE-12-ONE] | 102.6% | 96.22% |
| COc1cc([C@@H]2c3cc4c(cc3[C@@H](O)[C@H]3COC(=O)[C@H]23)OCO4)cc(OC)c1O [4'-DEMETHYLEPIPODOPHYLLOTOXIN] | 42.52% | 69.62% |
| O=C(/C=C/c1ccccc1)c1ccc(O)cc1 [4'-HYDROXYCHALCONE] | 132.2% | 130.5% |
| COc1ccc(C(=O)/C=C/c2ccccc2)cc1 [4'-METHOXYCHALCONE] | 100.4% | 93.51% |

| Structure (SMILES) | residual activity [1] | residual activity [2] |
| --- | --- | --- |
| C=CC(C1=CC(=O)C(OC)=CC1=O)c1ccc(OC)cc1 (configuration not stated) [4,4'-DIMETHOXYDALBERGIONE] | 116.4% | 101.4% |
| COc1ccc(-c2cc(=O)c3ccc(OC)cc3o2)cc1 [4,7-DIMETHOXYFLAVONE] | 91.89% | 87.07% |
| CC(=O)Oc1ccc(O)cc1 [4-ACETOXYPHENOL] | 136.7% | 116.4% |
| NCC(CC(=O)O)c1ccc(Cl)s1 (configuration not stated) [4-AMINO-3- (5-CHLOROTHIEN-2-YL)BUTANOIC ACID] | 116.9% | 99.7% |
| Cl.NCCc1ccc(S(=O)(=O)F)cc1 [4-AMINOETHYLBENZENESULFONYL FLUORIDE HYDROCHLORIDE] | 71.73% | 100% |
| C=CC(C1=CC(=O)C(OC)=CC1=O)c1ccccc1 (configuration not stated) [4-METHOXYDALBERGIONE] | 77.75% | 139.3% |
| Cc1cc(=O)oc2c(O)c(O)ccc12 [4-METHYLDAPHNETIN] | 61.23% | 78.2% |
| Cc1cc(=O)oc2cc(O)c(O)cc12 [4-METHYLESCULETIN] | 121.7% | 110.1% |
| CCCCCCCCCc1ccc(O)cc1 [4-NONYLPHENOL] | 140.8% | 184.2% |
| Cc1cc(=O)oc2cc(O)cc(O)c12 [5,7-DIHYDROXY-4-METHYLCOUMARIN] | 79.94% | 106.7% |
| O=c1c(-c2ccccc2)coc2cc(O)cc(O)c12 [5,7-DIHYDROXYISOFLAVONE] | 54.1% | 75.57% |
| COc1cc(OC)c2c(=O)c(-c3ccccc3)coc2c1 [5,7-DIMETHOXYISOFLAVONE] | 99.46% | 104.7% |
| Cl.NCCCCC(=O)O [5-AMINOPENTANOIC ACID HYDROCHLORIDE] | 59.53% | 62.53% |
| O=C(O)c1cc2cc(Cl)ccc2[nH]1 [5-CHLOROINDOLE-2-CARBOXYLIC ACID] | 75.02% | 91.36% |
| O=C(O)c1cc2cc(F)ccc2[nH]1 [5-FLUOROINDOLE-2-CARBOXYLIC ACID] | 108.9% | 103.9% |
| COc1cc(O)c2c(=O)c(-c3ccccc3)coc2c1 [5-HYDROXY-7-METHOXYISOFLAVONE] | 99.72% | 104.3% |
| C=C1CCC2C(CC2(C)C)C(=C)CC/C1=N/O (configuration not stated) [5-HYDROXYIMINOISOCARYOPHYLLENE] | 84.7% | 80.99% |
| COc1ccc2[nH]cc(CCN)c2c1 [5-METHOXYTRYPTAMINE] | 59.83% | 73.24% |
| O=C(O)c1cc([N+](=O)[O-])ccc1NCCCc1ccccc1 [5-NITRO-2-PHENYLPROPYLAMINOBENZOIC ACID [NPPB]] | 40.14% | 33.43% |
| COc1ccc2c(c1)[C@@]1(C)CCC(=O)C[C@@H]1CC2 [5alpha-12-METHOXY-4,4-BISNOR-8,11,13-PODOCARPATRIEN-3-ONE] | 131.2% | 89.3% |
